In brackets after ≈: the same amount, converted by molar mass.
What was measured:
Providencia sp. (P592) = assay: HN12b in combination with efflux pump inhibitors (CB method, FICI)
Protocol: (§1) 96-well microtiter plates containing MIC25 concentrations of the Efflux pump inhibitor (CCCP, PAβN) and HN12b antimicrobial drugs alone and in CB combination were used. The MICs of the individual drugs HN12b, PAβN and CCCP (0.25 to 128 μg/ml) and of the combinations were determined using the broth microdilution technique as recommended by the CLSI. Briefly, the broth microdilution plates were inoculated with each test organism to yield the appropriate density (10^5 CFU/ml) in 100 μl Mueller-Hinton broth (MHB) and incubated for 24 h at 37° C. in ambient air. One well with no antibiotic was used as a positive growth control on each plate. Plates were read for visual turbidity, and results were recorded after 24 h of incubation at 37° C. in ambient air by using a magnifying mirror reader, as turbidity in wells indicated growth of the microorganism. The MIC was determined as the well in the microtiter plate with the lowest drug concentration at which there was no visible growth. […] MICAB was defined as the MIC of drug A in the presence of drug B; MICBA was defined as the MIC of drug B in the presence of drug A.
(§2) The fractional inhibitory concentration index (FICI) was calculated for each antibiotic in each combination by using the following formula: FICA+FICB=FICI, where FICA equals the MIC of drug A in combination divided by the MIC of drug A alone and FICB equals the MIC of drug B in combination divided by the MIC of drug B alone. The FICIs were interpreted as follows: FICI of ≤0.5 will correspond to synergy; FICI of >0.5 to ≤1 will correspond to additivity; FICI of >1 to ≤4 will correspond to no interaction (indifference), and FICI of >4 will correspond antagonism.

K. planticola (1164) = assay: as above
Protocol: as §1, §2

Enterococcus sp. (1121) [1] = assay: as above
Protocol: as §1, §2

P. aeruginosa (Ps 366) = assay: as above
Protocol: as §1, §2

A. baumannii (AB387) = assay: as above
Protocol: as §1, §2

[2] = test system: Providencia sp. (MTCC 2102); assay: as above
Protocol: as §1, §2

E. coli KK45 = assay: as above
Protocol: as §1, §2

A. baumannii (MTCC1920) = assay: as above
Protocol: as §1, §2

Enterococcus sp. (2105) [3] = assay: as above
Protocol: as §1, §2

E. coli ATCC25922 = assay: as above
Protocol: as §1, §2

P. aeruginosa (MTCC1688) = assay: as above
Protocol: as §1, §2

[4] = test system: K. planticola (MTCC 2272); assay: as above
Protocol: as §1, §2

[5] = test system: E. coli K12 mutant ΔTopIA; assay: Susceptibility of E. coli K12 and mutants (MIC90); details: Escherichia coli
Protocol: (§3) MICs were determined by the broth microdilution method according to CLSI methods (Clinical and Laboratory Standards Institute, 2005). Inoculants were incubated at 37° C. on cation adjusted Mueller Hinton (MH) Broth for 18 to 24 h. Compound were dissolved in media to 10 doubling dilutions from 128 to 0.125 μg/mL. All the bacterial strains were grown in 96 well plate with low evaporation lid (Falcon, Becton Dickinson) in presence of derivatives of benzimidazoles at 0.125, 0.25, 0.5, 1, 2, 4, 8, 16, 32, 64, 128, 256 μg/mL concentrations. […] Plates were read by Tecan Micro-plate Reader at 600 nm.

[6] = test system: Acinetobacter baumannii (AB312); assay: Susceptibility (MIC50/MIC90), broth microdilution
Protocol: as §3

[7] = test system: E. coli K12 mutant ΔTopIB; assay: Susceptibility of E. coli K12 and mutants (MIC90); details: Escherichia coli
Protocol: as §3

Staphylococcus sp. (976) = assay: Susceptibility (MIC50/MIC90), broth microdilution
Protocol: as §3

[8] = test system: Mycobacterium tuberculosis H37Ra (avirulent); assay: Susceptibility of Mycobacterium tuberculosis strains (MIC90); assay type: cell-based
[9] = test system: Salmonella typhimurium (MTCC 1251); assay: Susceptibility (MIC50/MIC90), broth microdilution; details: Salmonella enterica
Protocol: as §3

E. coli K12 mutant ΔompF = assay: Susceptibility of E. coli K12 and mutants (MIC90); details: Escherichia coli
Protocol: as §3

[10] = test system: Pseudomonas aeruginosa (Ps162); assay: Susceptibility (MIC50/MIC90), broth microdilution
Protocol: as §3

[11] = test system: Salmonella typhimurium (St412); assay: Susceptibility (MIC50/MIC90), broth microdilution; details: Salmonella enterica
Protocol: as §3

[12] = test system: isogenic efflux deleted strains; assay: Susceptibility of isogenic efflux deleted strains versus wild type; assay type: cell-based, Escherichia coli; details: in comparison to wild type strains
M. tuberculosis = assay: Effect on virulent and avirulent strains of M. tuberculosis; assay type: cell-based, Mycobacterium tuberculosis
Enterococcus sp. (1367) = assay: Susceptibility (MIC50/MIC90), broth microdilution
Protocol: as §3

[13] = test system: Klebsiella planticola (MTCC 2272); assay: Susceptibility (MIC50/MIC90), broth microdilution; details: MTCC2272
Protocol: as §3

[14] = test system: Pseudomonas aeruginosa (MTCC1688); assay: Susceptibility (MIC50/MIC90), broth microdilution
Protocol: as §3

[15] = test system: Escherichia coli (ATCC 25922); assay: Susceptibility (MIC, PAE, MBC), broth microdilution; details: Escherichia coli, ATCC25922, Escherichia coli (ATCC 25922); Table 2
[16] = test system: Acinetobacter baumannii (MTCC1920); assay: Susceptibility (MIC50/MIC90), broth microdilution
Protocol: as §3

E. coli K12 = assay: Susceptibility of E. coli K12 and mutants (MIC90); details: Escherichia coli
Protocol: as §3

Enterococcus sp. (432) = assay: Susceptibility (MIC50/MIC90), broth microdilution
Protocol: as §3

E. coli K12 mutant ΔtolC = assay: Susceptibility of E. coli K12 and mutants (MIC90); details: Escherichia coli
Protocol: as §3

[17] = test system: Pseudomonas aeruginosa (MTCC 366); assay: Susceptibility (MIC50/MIC90), broth microdilution; details: MTCC366
Protocol: as §3

[18] = test system: Klebsiella planticola (K589); assay: Susceptibility (MIC50/MIC90), broth microdilution
Protocol: as §3

Escherichia coli 385 = assay: Susceptibility (MIC50/MIC90), broth microdilution
Protocol: as §3

E. coli K12 mutant ΔompC = assay: Susceptibility of E. coli K12 and mutants (MIC90); details: Escherichia coli
Protocol: as §3

[19] = test system: Klebsiella planticola (K1164); assay: Susceptibility (MIC50/MIC90), broth microdilution
Protocol: as §3

[20] = test system: Staphylococcus sp. (1016); assay: Susceptibility (MIC50/MIC90), broth microdilution; details: Staphylococcus
Protocol: as §3

[21] = test system: Klebsiella planticola (K235); assay: Susceptibility (MIC50/MIC90), broth microdilution
Protocol: as §3

Enterococcus sp. (1121) [22] = assay: Susceptibility (MIC50/MIC90), broth microdilution
Protocol: as §3

Staphylococcus sp. (982) = assay: Susceptibility (MIC50/MIC90), broth microdilution
Protocol: as §3

[23] = test system: Mycobacterium tuberculosis H37Rv (virulent); assay: Susceptibility of Mycobacterium tuberculosis strains (MIC90); assay type: cell-based
Enterococcus sp. (2105) [24] = assay: Susceptibility (MIC50/MIC90), broth microdilution
Protocol: as §3

E. coli K12 mutant ΔacrA = assay: Susceptibility of E. coli K12 and mutants (MIC90); details: Escherichia coli
Protocol: as §3

[25] = test system: Acinetobacter baumannii (AB387); assay: Susceptibility (MIC50/MIC90), broth microdilution
Protocol: as §3

E. coli K12 mutant ΔemrA = assay: Susceptibility of E. coli K12 and mutants (MIC90); details: Escherichia coli
Protocol: as §3

Escherichia coli 392 = assay: Susceptibility (MIC50/MIC90), broth microdilution
Protocol: as §3

[26] = test system: Shigella flexineri (MTCC1457); assay: Susceptibility (MIC50/MIC90), broth microdilution; assay type: cell-based
Enterococcus sp.(1150) = assay: Susceptibility (MIC50/MIC90), broth microdilution
Protocol: as §3

Enterococcus sp. (1365) = assay: Susceptibility (MIC50/MIC90), broth microdilution
Protocol: as §3

Compound: phenylalanine-arginine-β-naphthylamide [PAβN, reference compound]
- (BA) MIC90 (Providencia sp. (P592); Providencia sp. (P592), PAβN in presence of HN12b): 38 µg/mL
- MIC90 (Providencia sp. (P592); Providencia sp. (P592), single drug alone (A, B, C)): >128 µg/mL
- (BA) MIC90 (K. planticola (1164); K. planticola (1164), PAβN in presence of HN12b): 62 µg/mL
- MIC90 (K. planticola (1164); K. planticola (1164), single drug alone (A, B, C)): >128 µg/mL
- (BA) MIC90 (Enterococcus sp. (1121) [1]; Enterococcus sp. (1121), PAβN in presence of HN12b): 63 µg/mL
- MIC90 (Enterococcus sp. (1121) [1]; Enterococcus sp. (1121), single drug alone (A, B, C)): >128 µg/mL
- (BA) MIC90 (P. aeruginosa (Ps 366); P. aeruginosa (Ps 366), PAβN in presence of HN12b): 55 µg/mL
- MIC90 (P. aeruginosa (Ps 366); P. aeruginosa (Ps 366), single drug alone (A, B, C)): 120.2 µg/mL
- (BA) MIC90 (A. baumannii (AB387); A. baumannii (AB387), PAβN in presence of HN12b): 32 µg/mL
- MIC90 (A. baumannii (AB387); A. baumannii (AB387), single drug alone (A, B, C)): >128 µg/mL
- (BA) MIC90 ([2]; Providencia sp. (MTCC 2102), PAβN in presence of HN12b): 58 µg/mL
- MIC90 ([2]; Providencia sp. (MTCC 2102), single drug alone (A, B, C)): >128 µg/mL
- (BA) MIC90 (E. coli KK45; E. coli KK45, PAβN in presence of HN12b): 10 µg/mL
- (BA) MIC90 (A. baumannii (MTCC1920); A. baumannii (MTCC1920), PAβN in presence of HN12b): 59 µg/mL
- MIC90 (A. baumannii (MTCC1920); A. baumannii (MTCC1920), single drug alone (A, B, C)): >128 µg/mL
- (BA) MIC90 (Enterococcus sp. (2105) [3]; Enterococcus sp. (2105), PAβN in presence of HN12b): 59 µg/mL
- MIC90 (Enterococcus sp. (2105) [3]; Enterococcus sp. (2105), single drug alone (A, B, C)): >128 µg/mL
- (BA) MIC90 (E. coli ATCC25922; E. coli ATCC25922, PAβN in presence of HN12b): 4.8 µg/mL
- MIC90 (E. coli ATCC25922; E. coli ATCC25922, single drug alone (A, B, C)): 64 µg/mL
- (BA) MIC90 (P. aeruginosa (MTCC1688); P. aeruginosa (MTCC1688), PAβN in presence of HN12b): 60 µg/mL
- MIC90 (P. aeruginosa (MTCC1688); P. aeruginosa (MTCC1688), single drug alone (A, B, C)): 123 µg/mL
- (BA) MIC90 ([4]; K. planticola (MTCC 2272), PAβN in presence of HN12b): 62 µg/mL
- MIC90 ([4]; K. planticola (MTCC 2272), single drug alone (A, B, C)): >128 µg/mL

Compound: CCCCN1CCN(c2ccc3nc(-c4ccc5[nH]c(-c6ccc(OCC)cc6)nc5c4)[nH]c3c2)CC1 [SP12b, 5-(4-butylpiperazin-1-yl)-2′-(4-ethoxyphenyl)-1H,1′H-2,5′-bibenzo[d]imidazole]
- MIC90 [5]: 5.7 µg/mL (≈ 11.5 µM)
- MIC50 [6]: 14.6 µg/mL (≈ 29.5 µM)
- MIC90 [6]: 28.6 µg/mL (≈ 57.8 µM)
- MIC90 [7]: 17.8 µg/mL (≈ 36 µM)
- MIC50 (Staphylococcus sp. (976)): < 0.25 µg/mL
- MIC90 (Staphylococcus sp. (976)): 0.42 µg/mL (≈ 0.849 µM)
- MIC90 [8]: 1.78 µg/mL (≈ 3.6 µM)
- MIC50 [9]: < 0.25 µg/mL
- MIC90 [9]: 0.25 µg/mL (≈ 0.505 µM)
- MIC90 (E. coli K12 mutant ΔompF): 30.9 µg/mL (≈ 62.5 µM)
- MIC50 [10]: 40.5 µg/mL (≈ 81.9 µM)
- MIC90 [10]: 70.3 µg/mL (≈ 142 µM)
- MIC50 [11]: < 0.25 µg/mL
- MIC90 [11]: 0.25 µg/mL (≈ 0.505 µM)
- sensitisation of efflux deleted strains [12]: more sensitised
- effect on M. tuberculosis (M. tuberculosis): effective against M. tuberculosis
- MIC50 (Enterococcus sp. (1367)): < 0.25 µg/mL
- MIC90 (Enterococcus sp. (1367)): 1 µg/mL (≈ 2.02 µM)
- MIC50 [13]: > 128 µg/mL
- MIC90 [13]: 128 µg/mL (≈ 259 µM)
- MIC50 [14]: > 128 µg/mL
- MIC90 [14]: 128 µg/mL (≈ 259 µM)
- MIC50 [15]: 9.5 µg/mL (≈ 19.2 µM)
- MIC90 [15]: 24.9 µg/mL (≈ 50.3 µM)
- MIC50 [16]: > 128 µg/mL
- MIC90 [16]: 128 µg/mL (≈ 259 µM)
- MIC90 (E. coli K12): 32 µg/mL (≈ 64.7 µM)
- MIC50 (Enterococcus sp. (432)): > 128 µg/mL
- MIC90 (Enterococcus sp. (432)): > 128 µg/mL
- MIC90 (E. coli K12 mutant ΔtolC): 2.8 µg/mL (≈ 5.66 µM)
- MIC50 [17]: 0.4 µg/mL (≈ 0.809 µM)
- MIC90 [17]: 0.8 µg/mL (≈ 1.62 µM)
- MIC50 [18]: 3.4 µg/mL (≈ 6.87 µM)
- MIC90 [18]: 6.8 µg/mL (≈ 13.7 µM)
- MIC50 (Escherichia coli 385): 15 µg/mL (≈ 30.3 µM)
- MIC90 (Escherichia coli 385): 27 µg/mL (≈ 54.6 µM)
- MIC90 (E. coli K12 mutant ΔompC): 30.9 µg/mL (≈ 62.5 µM)
- MIC50 [19]: > 128 µg/mL
- MIC90 [19]: 128 µg/mL (≈ 259 µM)
- MIC50 [20]: < 0.25 µg/mL
- MIC90 [20]: 0.92 µg/mL (≈ 1.86 µM)
- MIC50 [21]: 25.9 µg/mL (≈ 52.4 µM)
- MIC90 [21]: 59.5 µg/mL (≈ 120 µM)
- MIC50 (Enterococcus sp. (1121) [22]): < 0.25 µg/mL
- MIC90 (Enterococcus sp. (1121) [22]): 0.92 µg/mL (≈ 1.86 µM)
- MIC50 (Staphylococcus sp. (982)): > 128 µg/mL
- MIC90 (Staphylococcus sp. (982)): > 128 µg/mL
- MIC90 [23]: 9.8 µg/mL (≈ 19.8 µM)
- MIC50 (Enterococcus sp. (2105) [24]): 3.7 µg/mL (≈ 7.48 µM)
- MIC90 (Enterococcus sp. (2105) [24]): 9.08 µg/mL (≈ 18.4 µM)
- MIC90 (E. coli K12 mutant ΔacrA): 3.9 µg/mL (≈ 7.88 µM)
- MIC50 [25]: 12 µg/mL (≈ 24.3 µM)
- MIC90 [25]: 16 µg/mL (≈ 32.3 µM)
- MIC90 (E. coli K12 mutant ΔemrA): 7.4 µg/mL (≈ 15 µM)
- MIC50 (Escherichia coli 392): 1.8 µg/mL (≈ 3.64 µM)
- MIC90 (Escherichia coli 392): 60 µg/mL (≈ 121 µM)
- MIC50 [26]: 1.24 µg/mL (≈ 2.51 µM)
- MIC90 [26]: 3.01 µg/mL (≈ 6.09 µM)
- MIC50 (Enterococcus sp.(1150)): < 0.25 µg/mL
- MIC90 (Enterococcus sp.(1150)): 2 µg/mL (≈ 4.04 µM)
- MIC50 (Enterococcus sp. (1365)): < 0.25 µg/mL
- MIC90 (Enterococcus sp. (1365)): 2 µg/mL (≈ 4.04 µM)

Compound: N#CC(C#N)=NNc1cccc(Cl)c1 [CCCP, carbonyl cyanide-m-chlorophenyl hydrazone, reference compound]
- MIC90 (Providencia sp. (P592); Providencia): 67.2 µg/mL
- MIC90 (K. planticola (1164); Klebsiella planticola): 14.7 µg/mL
- MIC90 (Enterococcus sp. (1121) [1]; Enterococcus): 16.2 µg/mL
- MIC90 (P. aeruginosa (Ps 366); Pseudomonas aeruginosa): 128 µg/mL
- MIC90 (A. baumannii (AB387); Acinetobacter baumannii): 12 µg/mL
- MIC90 ([2]; Providencia, MTCC2102): 10.9 µg/mL
- MIC90 (E. coli KK45; Escherichia coli, KK45): 12.3 µg/mL
- MIC90 (A. baumannii (MTCC1920); Acinetobacter baumannii, MTCC1920): 30.2 µg/mL
- MIC90 (Enterococcus sp. (2105) [3]; Enterococcus): 27.7 µg/mL
- MIC90 (E. coli ATCC25922; Escherichia coli, ATCC25922): 11.8 µg/mL
- MIC90 (P. aeruginosa (MTCC1688); Pseudomonas aeruginosa, MTCC1688): 128 µg/mL
- MIC90 ([4]; Klebsiella planticola, MTCC2272): 13.9 µg/mL
